Data from patent US20050266024A1 (priority 2002, published 2005).
“Also recorded” adds a separate entry of the source. Read-outs that look alike come from different tables or passages of the source.

Assays:
Balb/C mice [1] = type: in vivo; conditions: Example 7; first experiment, prime only
Balb/C mice [2] = experiment: IFN-g ELISPOT of spleen cells after HBsAg DNA vaccine; conditions: Example 2; prime and boost
Balb/C mice [3] = experiment: Serum antibody ELISA (HBsAg) after HBsAg DNA vaccine; type: in vivo; conditions: Example 2; prime and boost, HBsAg plasmid with HCMV promoter; FIG. 3
Method: (§1) For immunization with the Hepatitis B surface antigen (HBsAg) a plasmid containing the HCMV promoter/enhancer was used to drive expression of the HBsAg. For one experiment we also employed a plasmid in which the keratin 14 promoter was used instead of the HCMV promoter. This promoter is expected to have a more restricted pattern of expression and be expressed only in the skin unlike the HCMV promoter that is expressed in many cell types.
(§2) The cream is a 5% solution.
Serum samples were assayed for antibodies using an BLISA assay. Falcon Pro Bind microtiter plates were coated overnight at 4° C. with antigen in PBS (phosphate buffered saline, BioWhittaker). For HBsAg BLISA the antigen was purified HBsAg (BioDesign) at 0.1 ug per well, and for HSV ELISAs the antigen was 5 ug per well of an infected cell extract (Advanced Biotechnolgies Incorporated). […]
Plates were washed 3× and a biotinylated goat anti-mouse antibody (Southern Biotechnology) diluted 1:8000 in dilution buffer was added to the plate and incubated for 1 hr at RT. […] Optical density was read at 450 nm. Endpoint titers for HBsAg were calculated by comparison of the samples with a standard of known titer.

Balb/C mice [4] = experiment: CD8 IFN-g ELISA of spleen cells after HBsAg DNA vaccine; type: in vivo; conditions: Example 2; prime and boost
Description: as §1, §2
Mice were immunized with a DNA vaccine containing a HBsAg expressing plasmid using either a high dose (1 ug) or low dose (50 ng) of vaccine. […] One group was also treated for three days (day 0, 1 and 2). […] Results shown in FIG. 1 are from the CD8 IFN-g ELISA. […] The values are the means from 4 individual mice.

Balb/C mice [5] = experiment: Anti-sAg and anti-cAg antibody ELISAs after PMID with HBV sAg/cAg plasmid; type: in vivo; conditions: Example 7
Balb/C mice [6] = type: in vivo; conditions: for g-IFN secretion: first experiment
Method: Two further experiments were performed to assess the efficacy of imiquimod (Aldara cream) as an adjuvant for particle-mediated immunization with DNA (PMD). Both experiments used a plasmid expressing HBV sAg and cAg as a test vaccine. […] Readouts included antibody titers and cytokine ELISPOTs to the two antigens.
Groups of 5-10 Balb/c mice were vaccinated on the shaved abdomen with one shot each on day 0 (prime only) or days 0 and 28 (prime and boost). PMID was administered using an ND5.5 device with a payload of 1 mg Au and a 35 bar cylinder. […] In experiment one, a small, unmnetered amount of Aldara was delivered at the indicated times using a cotton swab to rub the cream in. […] The control cream was an over the counter hand cream which contained many of the same ingredients as the Aldara base cream.
Mice were bled retro-orbitally at 4 weeks for prime/boost groups. Blood was collected by intracardiac puncture, and spleens were removed for cellular assays at sacrifice at either week 2 (prime only) or week 6 (boost+2 weeks). Sera were analyzed for anti-sAg and anti-cAg antibodies using in-house ELISAs. Spleen cells from individual mice were stimulated with protein or peptide for g-IFN and IL-4 ELISPOT assays. Three sets of antigen were used: 1) intact cAg from Biodesign; 2) a library of overlapping sAg peptides (15 mers offset by 3 amino acids synthesized by Chiron); and 3) an immunodominant peptide from sAg (amino acids 28-39) known to bind the MHC class I molecule Ld. Specific spot-forming cells were calculated by subtracting the number of spots generated with cells cultured in medium alone.

Balb/C mice [7] = experiment: ELISA for subclass of HBsAg specific antibody (IgG1/IgG2a); type: in vivo; conditions: Example 6; serum samples from different experiments; FIG. 15
Balb/C mice [8] = experiment: Cellular immune responses after HBsAg DNA vaccine (assay not specified); type: in vivo; conditions: as stated in Example 6
Description: This experiment includes a plasmid that expresses HBsAg from the keratin 14 promoter. This was used to try and alter the expression of the antigen in different cell types and see if this affects the immune response. Mice were immunized twice.

Balb/C mice [9] = experiment: Resiquimod adjuvant test: cellular immune responses (CD8 ELISPOT) after HBsAg DNA vaccine; type: in vivo; conditions: Example 16, topical
Method: Resiquimod is delivered topically to the abdominal skin of Balb/c mice on either day −2, −1, 0, 1, 2 or 3 relative to immunization on day 0. Immunization utilizes a DNA vaccine that expresses the Hepatitis B surface antigen so that cellular and antibody responses found after treatment with Resiquimod can be evaluated and compared to a wealth of historical data. The formulation consists of either a 0.05% cream, or a DMSO solution (approximately 5 mg/ml). Ideally both types of formula are tested. One half of the mice are sacrificed 7 days after immunization to measure cellular immune responses (CD8 ELISPOT). The remaining mice are bled 28 days after immunization, boosted with the same schedule as the priming immunization and then sacrificed 2 weeks later to test for antibody and cellular responses. Serum is used to test for antibody titer and to evaluation subclass distribution of IgG antibodies indicating the bias of the immune response.
For immunization DNA vaccine plasmids with a well-known immune response are employed. Plasmid WRG7128 is a likely choice which expresses the Hepatitis B surface antigen (HBsAg) using the HCMV promoter/enhancer and generates a cellular and antibody response.
Resiquimod is formulated as either a 0.05% cream, or a 5 mg/ml solution in DMSO. To apply the cream, it is rubbed onto the abdomens of mice using a cotton swab. […]

SMILES: CC(C)Cn1cnc2c(N)nc3ccccc3c21 [imiquimod, 1-(2-methyl-propyl)-1H-imidazo[4,5-c]quinolin-4-amine]
- IL-4 ELISPOTs / IL-4 secretion (Balb/C mice [1]): little effect; also recorded: no effect
- cellular response (ELISPOTs) (Balb/C mice [2]): enhanced the responses
- antibody levels (Balb/C mice [3]): strong reduction in antibody levels
- cellular response (IFN-g ELISA) (Balb/C mice [4]): enhanced the responses
- antibody titers / antibody responses to HBV sAg and cAg (Balb/C mice [5]): little effect; also recorded: did not enhance antibody responses
- g-IFN ELISPOT response to class I-restricted peptide (CD8+ cells) (Balb/C mice [6]; Example 7, first experiment, compared with sAg peptide library response): comaparable responses were seen
- optimal time point for augmenting g-IFN-secreting cells (Balb/C mice [6]; Example 7, time after PMID): about a day and upto 7 days after PMID
- g-IFN secretion (Balb/C mice [6]; highest dose of DNA, delivered right before or right after): slightly inhibitory
- g-IFN secretion (Balb/C mice [6]; highest dose of DNA, given 24 hours after): augments PMID
- g-IFN secretion (Balb/C mice [6]; low doses of DNA, administration 24 hours post PMID): most effective
- g-IFN secretion (Balb/C mice [6]; low doses of HBV-encoding DNA, all three time points): enhances g-IFN secretion

SMILES: CCCCC[C@H](O)/C=C/[C@H]1[C@H](O)CC(=O)[C@@H]1C/C=C\CCCC(=O)O [PGE2]
- ratio of IgG1/IgG2a of HBsAg specific antibody (Balb/C mice [7]): does not have the same effect overall
- cellular responses (Balb/C mice [8]): can enhance cellular responses

SMILES: CCOCc1nc2c(N)nc3ccccc3c2n1CC(C)(C)O [Resiquimod, 4-amino-2-ethoxymethyl-alpha,alpha-dimethyl-1H-imidazo [4,5-c]quinoline-1-ethanol]
- cellular immune response (Balb/C mice [9]): boost in the cellular immune response
- immune responses to the DNA vaccines (Balb/C mice [9]; before or after immunization): enhances immune responses
